Series [1] in a line: Metabolic stability in rat liver microsomes assessed as intrinsic clearance. The settings on record: read-out: CLH. In kind it is ADME, Microsome.
Series [2] deals with T1, Autotaxin (Homo sapiens, UniProt Q13822).
Description: Inhibition of human recombinant ATX expressed in HEK293 cells assessed as inhibition of choline release using LPC (18:1) as substrate preincubated with enzyme for 20 mins followed by substrate addition and measured every 2 mins for 40 mins by resurofin-based fluorescence analysis
The nature of series [3]: Tmax in Sprague-Dawley rat at 10 mg/kg, po. In kind it is ADME, organism-based. The conditions noted are these: in vivo.
Series [4] is described as follows: (§1) In vivo inhibition of ATX in po dosed Sprague-Dawley rat assessed as inhibition of LPA formation in serum by LC-MS analysis. In kind it is functional, organism-based.
A further series concerns Rattus norvegicus. The description is as §1. In kind it is functional, organism-based.
For series [5], the target named is T1, Autotaxin. As to the kind of experiment: Inhibition of ATX in human serum assessed as reduction in LPA (18:1) level by LC-MS analysis. It is filed as cell-free.
A short description of series [6]: Oral bioavailability in Sprague-Dawley rat at 10 mg/kg. In kind it is ADME, organism-based. The settings on record: in vivo.
The nature of series [7]: Cmax in Sprague-Dawley rat at 10 mg/kg, po. It is filed as ADME, organism-based. The arrangement: route oral, dose 10 mg/kg. The settings on record: in vivo.
A short description of series [8]: AUC (0 to infinity) in Sprague-Dawley rat at 10 mg/kg, po. It is filed as ADME, organism-based. More on the design: route oral, time infinity, dose 10 mg/kg. The conditions noted are these: in vivo.
Series [9] is described as follows: Volume of distribution at steady state in Sprague-Dawley rat at 1 mg/kg, iv. It is filed as ADME, organism-based. The conditions noted are these: in vivo, read-out: Vdss.
The nature of series [10]: Clearance in Sprague-Dawley rat at 1 mg/kg, iv. It is filed as ADME, organism-based. The conditions noted are these: in vivo.
Series [11] can be described thus: Half life in Sprague-Dawley rat at 1 mg/kg, iv. The settings on record: in vivo. It is filed as ADME, organism-based.
Series [12] in a line: Metabolic stability in human liver microsomes assessed as intrinsic clearance. The settings on record: read-out: CLH. It is filed as ADME, Microsome.
Series [13] has as its target Voltage-gated inwardly rectifying potassium channel KCNH2 (Homo sapiens, UniProt Q12809). As to the kind of experiment: Inhibition of human ERG expressed in CHO-K1 cells by automated Qpatch clamp assay. Background: In patch-clamp work, channel activity is measured electrically.
The nature of series [14]: Equilibrium solubility of compound at pH 6.8. The settings on record: buffer. In kind it is physicochemical.
The nature of series [15]: Passive Permeability of the compound across artificial membrane assessed as fraction absorbed by PAMPA assay. (In general: In PAMPA a lipid-coated filter parts donor from acceptor wells.)

Structures are written as SMILES. pIC50: −log10 of the molar value. A value given as a limit tells only on which side of the number the result lay.

This is an account of results in ChEMBL document CHEMBL4673273, “Development of autotaxin inhibitors: A series of tetrazole cinnamides” (Bioorg Med Chem Lett, 2021).

In general, pIC50 refers to the negative decadic logarithm of the IC50, by convention in mol/L. By Tmax is commonly meant the time from dosing to the highest level. For orientation: bioavailability means the share of a dose that reaches the circulation, judged against a reference dose that is usually intravenous. High values mean much systemic uptake, low ones little systemic uptake. A word on the Cmax: it is the highest concentration seen after dosing. The AUC is the area under the concentration-time curve, a measure of exposure. The low end stands for less exposure, the high end for more exposure. What is called clearance is the volume of plasma or blood freed of the substance per unit of time. The term half-life denotes how long it takes for the measured level to halve. The term solubility (thermodynamic) denotes solubility found after equilibrating the solid with the medium.

Sequence of Voltage-gated inwardly rectifying potassium channel KCNH2 (Q12809 whole entry): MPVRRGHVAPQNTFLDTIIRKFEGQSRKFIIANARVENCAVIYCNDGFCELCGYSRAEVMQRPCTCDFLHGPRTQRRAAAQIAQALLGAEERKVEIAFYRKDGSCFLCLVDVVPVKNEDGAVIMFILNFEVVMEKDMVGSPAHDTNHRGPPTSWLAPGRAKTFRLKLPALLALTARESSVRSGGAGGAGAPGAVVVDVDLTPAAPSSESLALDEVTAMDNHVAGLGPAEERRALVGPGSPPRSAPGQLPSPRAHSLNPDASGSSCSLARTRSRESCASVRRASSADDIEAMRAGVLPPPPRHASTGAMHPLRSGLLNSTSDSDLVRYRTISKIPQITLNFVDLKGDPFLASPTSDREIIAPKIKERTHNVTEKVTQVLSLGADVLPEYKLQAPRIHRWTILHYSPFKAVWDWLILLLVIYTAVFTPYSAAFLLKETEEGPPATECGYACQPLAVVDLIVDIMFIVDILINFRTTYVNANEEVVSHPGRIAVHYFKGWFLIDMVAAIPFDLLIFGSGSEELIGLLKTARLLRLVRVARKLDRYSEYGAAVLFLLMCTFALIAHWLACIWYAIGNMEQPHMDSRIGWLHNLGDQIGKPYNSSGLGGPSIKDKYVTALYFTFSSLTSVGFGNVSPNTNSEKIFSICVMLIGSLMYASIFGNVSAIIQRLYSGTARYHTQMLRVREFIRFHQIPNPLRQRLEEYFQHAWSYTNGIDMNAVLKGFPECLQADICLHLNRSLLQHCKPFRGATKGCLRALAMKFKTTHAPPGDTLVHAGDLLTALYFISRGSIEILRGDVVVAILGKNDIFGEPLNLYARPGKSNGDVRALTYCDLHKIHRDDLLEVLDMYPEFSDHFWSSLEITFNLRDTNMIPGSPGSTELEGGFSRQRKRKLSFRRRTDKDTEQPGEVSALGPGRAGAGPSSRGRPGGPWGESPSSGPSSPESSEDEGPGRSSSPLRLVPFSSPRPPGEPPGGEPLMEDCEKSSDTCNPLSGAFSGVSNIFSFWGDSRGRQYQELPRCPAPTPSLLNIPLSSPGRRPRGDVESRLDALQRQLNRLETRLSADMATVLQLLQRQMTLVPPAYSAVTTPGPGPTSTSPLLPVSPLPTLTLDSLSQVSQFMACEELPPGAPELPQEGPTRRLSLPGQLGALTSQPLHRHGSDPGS

`Cc1nnn(Cc2cc(Cl)ccc2/C=C/C(=O)N2CCNC[C@H]2C)n1`: the microsomal CLint in series [1] came out at 84 µL/min/mg. Also, the pIC50 on Autotaxin [2] is 7.02.

On to `Cc1noc(C2CCN(C(=O)/C=C/c3ccc(C(F)(F)F)cc3Cn3nnc(C)n3)CC2)n1`, for which the microsomal CLint in series [1] worked out at 36 µL/min/mg.

As for `Cc1nnn(Cc2cc(Cl)ccc2/C=C/C(=O)N2CCN(Cc3ccc(F)cc3)CC2)n1`, the microsomal CLint in [1] was 470 µL/min/mg. This molecule also gave a pIC50 against Autotaxin [2] of 7.70.

Consider `Cc1nnn(Cc2cc(C(F)(F)F)ccc2/C=C/C(=O)N2CCC(c3nnc(C)o3)CC2)n1`, for which, in series [3], the Tmax was found to be 1.3 h. Besides, the pIC50 in series [4] is 8.30; on Autotaxin [5], 7.92; in series [13], 4.64. In the series with Rattus norvegicus, the inhibition result is “Dose-dependent effect”. Also, the bioavailability in series [6] turned out to be 94%. For the same molecule, the highest level in series [7] (Cmax) was 5.1 µM. Besides, the AUC in [8] stood at 23.2 µM·h. In addition, the Vd in series [9] was determined as 1.8 L/kg. In [10], this molecule displayed a clearance of 15 mL/min/kg. Moreover, the half-life in series [11] is 3.6 h. For the same molecule, the microsomal CLint is 13 µL/min/mg in [12] and 19 µL/min/mg in [1].

Turning to `Cc1nnn(Cc2cc(Cl)ccc2/C=C/C(=O)N2CCC(Cc3nnc(C)o3)CC2)n1`, the microsomal CLint in series [1] is 89 µL/min/mg. Also, the pIC50 in series [13] was below 4.52.

Regarding `C[C@@H]1CN(Cc2ccc(F)cc2)CCN1C(=O)/C=C/c1ccc(Cl)cc1Cn1ncnn1`, the microsomal CLint in series [1] was 730 µL/min/mg. On Autotaxin [2], this molecule had a pIC50 of 7.80.

As to `Cc1ncn(C2CCN(C(=O)/C=C/c3ccc(C(F)(F)F)cc3Cn3nnc(C)n3)CC2)n1`, the values for the microsomal CLint in series [12] and in series [1] were 16 µL/min/mg and 15 µL/min/mg, respectively. For the same molecule, the pIC50 in series [13] is 4.60; against Autotaxin [2], 7.80.

For `Cc1nnn(Cc2cc(Cl)ccc2/C=C/C(=O)N2CCC(Cc3ncc(C)o3)CC2)n1`, the microsomal CLint in [1] was 570 µL/min/mg.

With `Cc1nnn(Cc2cc(C(F)(F)F)ccc2/C=C/C(=O)N2CCC(c3noc(C)n3)CC2)n1`, the microsomal CLint was found to be 19 µL/min/mg in series [12] and 35 µL/min/mg in series [1]. Moreover, the pIC50 in [13] is below 4.52.

For `Cc1nnn(Cc2cc(Cl)ccc2/C=C/C(=O)N2CCN(Cc3coc(C)n3)CC2)n1`, in [3], the Tmax was found to be 0.4 h. Also, the bioavailability in series [6] was 52%. Besides, in series [7], the concentration peaked (Cmax) at 2.8 µM. The same molecule had an AUC in series [8] of 4.4 µM·h. The Vd in series [9] was found to be 1.6 L/kg. Moreover, in series [10], the clearance came to 45 mL/min/kg. This molecule also returned a solubility (thermodynamic) in series [14] above 1000 µM. In series [11], this molecule had a half-life of 0.8 h. In series [1], the microsomal CLint turned out to be 72 µL/min/mg. In addition, the pIC50 in series [13] was 4.64.

With `COc1ccc(CN2CCN(C(=O)/C=C/c3ccc(Cl)cc3Cn3nnc(C)n3)CC2)cc1`, the microsomal CLint in [1] was determined as 520 µL/min/mg. Moreover, the pIC50 against Autotaxin [2] is 8.04.

Regarding `Cc1nnn(Cc2cc(Cl)ccc2CCC(=O)N2CCN(Cc3ccc(F)cc3)C[C@H]2C)n1`, in series [1], the microsomal CLint is above 920 µL/min/mg. At Autotaxin [2], this molecule showed a pIC50 of 7.72.

With `Cc1noc(Cc2cc(Cl)ccc2/C=C/C(=O)N2CCN(Cc3ccc(F)cc3)C[C@H]2C)n1`, the microsomal CLint in series [1] was 580 µL/min/mg. For the same molecule, at Autotaxin [2], the pIC50 was 7.74.

`Cc1nnn(Cc2cc(Cl)ccc2/C=C/C(=O)N2CCN(C(=O)c3ccc(F)cc3)CC2)n1`: the microsomal CLint in series [1] was found to be 71 µL/min/mg. Also, the pIC50 on Autotaxin [2] is 5.80.

With `Cc1cnn(Cc2cc(Cl)ccc2/C=C/C(=O)N2CCN(Cc3ccc(F)cc3)C[C@H]2C)n1`, the microsomal CLint in series [1] stood at 690 µL/min/mg. The pIC50 against Autotaxin [2] is 8.23.

As to `COc1ccc(CN2CCN(C(=O)/C=C/c3ccc(Cl)cc3Cn3nnc(C)n3)CC2)nc1`, the microsomal CLint in [1] was 190 µL/min/mg. The pIC50 in [13] was 5.72.

In the case of `Cc1nnn(Cc2cc(Cl)ccc2/C=C/C(=O)N2CCN(Cc3cnn(C)c3)CC2)n1`, in [1], the microsomal CLint was determined as 49 µL/min/mg. Also, the pIC50 in series [13] is 4.82.

`Cc1nnn(Cc2cc(Cl)ccc2/C=C/C(=O)N2CCN(Cc3ccc(F)cc3)C[C@H]2C)n1`: the microsomal CLint in [12] came to 230 µL/min/mg; in series [1], 510 µL/min/mg. Moreover, the pIC50 against Autotaxin [2] was 8.02.

Regarding `Cc1cc(CN2CCN(C(=O)/C=C/c3ccc(Cl)cc3Cn3nnc(C)n3)CC2)on1`, in series [1], the microsomal CLint amounted to 88 µL/min/mg. The same molecule gave a pIC50 in series [13] of 4.92.

`Cc1cc(CN2CCN(C(=O)/C=C/c3ccc(Cl)cc3Cn3nnc(C)n3)CC2=O)on1`: in series [1], the microsomal CLint was determined as 87 µL/min/mg. The pIC50 against Autotaxin [2] was 7.59.

Consider `Cc1nnn(Cc2cc(C(F)(F)F)ccc2/C=C/C(=O)N2CCC(C(F)(F)F)CC2)n1`, for which the microsomal CLint in [1] worked out at 41 µL/min/mg. On Autotaxin [2], this molecule had a pIC50 of 7.89.

Take `Cc1nnn(Cc2cc(C(F)(F)F)ccc2/C=C/C(=O)N2CCC(Cl)CC2)n1`: the Fa in series [15] was 89%. In addition, the microsomal CLint in series [1] was 89 µL/min/mg. Also, the pIC50 in series [13] was below 4.52; at Autotaxin [2], 7.22.

As to `Cc1nnn(Cc2cc(C(F)(F)F)ccc2/C=C/C(=O)N2CCC(C#N)CC2)n1`, the Fa in series [15] was determined as 27%. Besides, the microsomal CLint in series [1] was 28 µL/min/mg. The pIC50 in [13] was 4.60; against Autotaxin [2] it was 6.10.
